Assay results taken from patent publication US10195144B2, “Methods of treating inflammatory and autoimmune diseases and disorders” (Yale University, priority 2012, dated 2019).

Key:
CD4 T cells = test: CD4 T cell proliferation after particle incubation, wash and anti-CD3/anti-CD28 stimulation; assay type: cell-based; settings: brief incubation, wash, 4 days stimulation
Method: CD4 T cells were briefly incubated with particles, washed to remove any unbound particles, and then stimulated for 4 days with anti-CD3 and anti-CD28 antibodies to promote proliferation.

female NZB/W F1 mice = test: survival of lupus-prone mice under life-long weekly therapy; assay type: in vivo
Method: NZB/W F1 mice develop autoimmunity that resembles human lupus nephritis, with development of glomerulonephritis, anemia, and the generation of autoantibodies specific for double-stranded DNA and other self-antigens. NZB/W F1 mice were administered a life-long, single weekly intraperitoneal injection of nanoparticle therapy beginning at 18 weeks of age, before the onset of proteinuria. The single, weekly MPA dosage in nanoparticles was 0.625 mg of MP A per kg animal (mpk). Control mice received only saline buffer.
Animal studies using female NZB/W F1 mice (The Jackson Laboratory, stock #100008) were performed with the approval of the Yale University Institutional Animal Care and Use Committee. Beginning at 18 weeks of age, NZB/W F1 mice were administered a weekly intraperitoneal injection of nanoparticles or mycophenolic acid in buffer for the entirety of their life. An intraperitoneal injection was used, as opposed to intravenous tail vein injection, to prevent long-term tail vein damage from chronic injections. Mice urine was collected by bladder compression, and blood was collected via retroorbital bleed with isoflurane anesthesia. Mouse survival was continued until symptoms of cachexia (more than 5-10% body weight loss), lethargy, or poor condition warranted humane euthanization.

[1] = test system: NZB/W F1 lupus-prone mice; test: in vivo comparison of nanolipogels and PLGA particles, survival; settings: 0.625 mg MPA per kg
Source text: The efficacy of nanolipogels was compared to PLGA using both in vivo and in vitro evaluation. […] Survival time was monitored to determine and compare in vivo efficacy between particles.

For `COc1c(C)c2c(c(O)c1C/C=C(\C)CCC(=O)O)C(=O)OC2` [MPA, mycophenolic acid], the “CD4 T cell proliferation and cytokine production” value (CD4 T cells) was “normal proliferation and cytokine production”, the effect on survival (female NZB/W F1 mice; 0.625 mpk soluble in buffer) was “no effect on extending survival” and the effect on survival (female NZB/W F1 mice; 10 mpk (16-fold) in buffer, listed as MPA administered in buffer) was “could not achieve the same therapeutic effect”. The effect on survival (female NZB/W F1 mice; 10 mpk (16-fold) in buffer, listed as free MPA) was “no improvement in survival” and the “increase of survival time of treated mice” value [1] was “not”.
